Laboratory results reported in patent US20110237612A1, “Thienylamino pyrimidines for use as Fungicides” (BayerCropScience AG, priority 2008, published 2011).
Where two headings read alike, the source gives them in different places.

What was measured:
[1] = for logp [b]: pH 2.7; for logp [c]: pH 7.8; for logp [a]: pH 2.3
[2] = logP determination by HPLC on reversed-phase columns (EEC directive 79/831 Annex V.A8); settings: for logp [b] / logp [c]: LC-MS; for logp [b] / logp [a]: acidic range; for logp [b]: pH 2.7, 0.1% aqueous formic acid and acetonitrile; for logp [c]: neutral range, pH 7.8, 0.001 molar aqueous ammonium bicarbonate and acetonitrile; for logp [a]: pH 2.3, 0.1% aqueous phosphoric acid and acetonitrile
[3] = test system: Production of Fumonisin FB1 by Fusarium Proliferatum; experiment: Production of fumonisin FB1 by Fusarium proliferatum; assay type: cell-based; settings: FB1 concentration by HPLC-MS/MS after 6 days at 20° C.
[4] = test system: Fusarium proliferatum; experiment: Growth of Fusarium proliferatum (OD620) in the fumonisin test; assay type: cell-based; settings: OD620 at the beginning and after 6 days
[5] = physchem; settings: pH 2.3
[6] = test system: Gibberella zeae; settings: in vivo

Row | SMILES | logp [b] [1] | logp [c] [1] | other results
1 | Clc1cnc(Nc2ccsc2)nc1NC1CCC1 [Example 18] | 1.96[b] | 3.46[c]; | –
2 | N#Cc1csc(Nc2ncc(Cl)c(NC3CC3)n2)c1 [Example 12] | – | – | logp [a] [1]: 2.55[a]
3 | Cc1ccc(Nc2ncc(C(F)(F)F)c(NC3CC3)n2)s1 [Example 36] | 3.22[b] | 3.56[c]; | –
4 | Cc1ccc(Nc2ncc(Cl)c(NC3CC3)n2)s1 [Example 26, 5-Chloro-N^4-cyclopropyl-N^2-2-methylthiophen-5-yl-2,4-diamine] | – | – | logp [b] [2]: 2.09[b]; logp [c] [2]: 3.20[c];; logP (pH 2.3) [2]: 2.09
5 | O=C(NO)c1cc(Nc2ncc(Cl)c(NC3CC3)n2)cs1 [Example 25] | 2.1[b] | 2.96[c]; | –
6 | FC(F)CNc1nc(Nc2ccsc2)ncc1Cl [Example 31] | 1.88[b] | 2.72[c]; | –
7 | CCN(CC)C(=O)c1cc(Nc2ncc(Cl)c(NC3CC3)n2)cs1 [Example 9] | – | – | pI50 Fum [3]: 6.0; pI50 growth [4]: 5.5; logp [a] [1]: 1.62[a]
8 | S=C(c1cc(Nc2ncc(Cl)c(NC3CC3)n2)cs1)N1CCCC1 [Example 39] | 2.31[b] | 3.23[c]; | –
9 | CC(=O)c1ccc(Nc2ncc(Cl)c(NC3CC3)n2)s1 [Example 10, N^4-Cyclopropyl-N^2-2-acetylthiophen-5-yl-5-(chloro)pyrimidine-2,4-diamine] | – | – | chromatographic logP [5]: 1.87
10 | CC1CC1Nc1nc(Nc2ccsc2)ncc1Cl (mixture of isomers) [Example 17] | – | – | logp [a] [1]: 1.97[a]
11 | Clc1ccc(Nc2ncc(Cl)c(NC3CC3)n2)s1 [Example 43] | – | 3.54[c]; | –
12 | CN(CC1CC1)C(=O)c1cc(Nc2ncc(Cl)c(NC3CC3)n2)cs1 [Example 38] | 2.08[b] | 2.86[c]; | –
13 | CS(=O)(=O)c1ccc(Nc2ncc(Cl)c(NC3CC3)n2)s1 [Example 33] | 1.97[b] | 2.02[c]; | –
14 | Clc1cc(Nc2ncc(Cl)c(NC3CC3)n2)cs1 [Example 41] | 2.63[b] | – | –
15 | N#Cc1cc(Nc2ncc(Cl)c(NC3CC3)n2)cs1 [Example 14] | – | – | logp [a] [1]: 2.23[a]
16 | Cc1ccc(Nc2ncc(Br)c(NC3CC3)n2)s1 [Example 44] | 2.27[b] | 3.35[c]; | –
17 | FC(F)CNc1nc(Nc2ccsc2)ncc1Br [Example 30] | 1.99[b] | 2.83[c]; | –
18 | CSc1ccc(Nc2ncc(Br)c(NC3CC3)n2)s1 [Example 35] | 3.02[b] | 3.53[c]; | –
19 | Brc1cnc(Nc2ccsc2)nc1NC1CC1 [Example 4] | 1.71[b] | – | –
20 | CCN(CC)C(=S)c1cc(Nc2ncc(Cl)c(NC3CC3)n2)cs1 [Example 40] | 2.55[b] | 3.51[c]; | –
21 | Clc1cnc(Nc2ccsc2)nc1Cl [Example X-1, 4,5-Dichloro-N-(3-thienyl)pyrimidin-2-amine] | – | – | chromatographic logP [5]: 3.55
22 | O=c1[nH]c(Nc2ccsc2)ncc1Cl [IX-1, 2-(Thiophen-3-ylamino)-5-chloropyrimidin-4(3H)-one] | – | – | chromatographic logP [5]: 1.38

Row | SMILES | logp [b] [1] | logp [c] [1] | other results
23 | CC(C)Nc1nc(Nc2ccsc2)ncc1Cl [Example 27] | 1.66[b] | 3.28[c]; | –
24 | CC(=O)c1ccc(N)s1 [1-(5-Amino-2-thienyl)ethanone] | – | – | chromatographic logP [5]: 0.42
25 | O=C(O)c1cc(Nc2ncc(Cl)c(NC3CC3)n2)cs1 [Example 37, 5-Chloro-N^4-cyclopropyl-N^2-2-hydroxycarbonylthiophen-4-yl-2,4-diamine] | – | – | logp [b] [2]: 1.30[b]; logp [c] [2]: 0.74[c];; logP (pH 2.3) [2]: 1.30
26 | COCC(C)NC(=O)c1cc(Nc2ncc(Cl)c(NC3CC3)n2)cs1 (stereo not shown) [Example 24] | 1.58[b] | 2.22 [c]; | –
27 | Clc1cnc(Nc2ccsc2)nc1NCC1CC1 [Example 32] | 2.33[b] | 3.31[c]; | –
28 | O=C(c1cc(Nc2ncc(Cl)c(NC3CC3)n2)cs1)N1CCOCC1 [Example 19] | 1.45[b] | 2.09[c]; | –
29 | Clc1cnc(Nc2ccsc2)nc1NC1CC1 [Example 1] | 1.63[b] | – | –
30 | CC(C)Nc1nc(Nc2ccsc2)ncc1Br [Example 28] | 1.85[b] | 3.43[c]; | –
31 | O=C(c1cc(Nc2ncc(Cl)c(NC3CC3)n2)cs1)N1CCCC1 [Example 6, 5-Chloro-N^4-cyclopropyl-N^2-2-pyrrolidin-1-ylcarbonylthiophen-4-yl-2,4-diamine] | – | – | pI50 Fum [3]: 5.9; pI50 growth [4]: 5.6; logp [a] [2]: 1.42[a]; logP (pH 2.3) [2]: 1.40
32 | C=CCN(C)C(=O)c1cc(Nc2ncc(Cl)c(NC3CC3)n2)cs1 [Example 22] | 1.89[b] | 2.65[c]; | –
33 | Cc1ccc(NC(=O)OC(C)(C)C)s1 [2-(N-tert-Butoxycarbonylamino)-5-methylthiophene] | – | – | chromatographic logP [5]: 2.89
34 | COC(=O)c1cc(Nc2ncc(Cl)c(NC3CC3)n2)cs1 [Example 5, 5-Chloro-N^4-cyclopropyl-N^2-2-methoxycarbonylthiophen-4-yl-2,4-diamine] | – | – | pI50 Fum [3]: 5.3; pI50 growth [4]: 4.4; logp [a] [2]: 1.68[a]; logP (pH 2.3) [2]: 1.68
35 | CC(C)(C)NC(=O)c1cc(Nc2ncc(Cl)c(NC3CC3)n2)cs1 [Example 20] | 2.11[b] | – | –
36 | O=C(c1cc(Nc2ncc(Cl)c(NC3CC3)n2)cs1)N1CCCCC1 [Example 7] | – | – | logp [a] [1]: 1.68[a]
37 | CC(=O)c1cc(Nc2ncc(Cl)c(NC3CC3)n2)cs1 [Example 13] | – | – | logp [a] [1]: 1.44[a]
38 | FC(F)(F)c1cnc(Nc2ccsc2)nc1NC1CC1 [Example 2] | 2.69[b] | – | efficacy [6]: ≥ 80%
39 | COCCNC(=O)c1cc(Nc2ncc(Cl)c(NC3CC3)n2)cs1 [Example 23] | 1.38[b] | 2.01[c]; | –
40 | C=CCNC(=O)c1cc(Nc2ncc(Cl)c(NC3CC3)n2)cs1 [Example 21] | – | 2.28[c] | –
41 | Brc1cnc(Nc2ccsc2)nc1NC1CCC1 [Example 3] | 2.12[b] | – | –
42 | CSc1ccc(Nc2ncc(Cl)c(NC3CC3)n2)s1 [Example 34] | 2.84[b] | 3.36[c]; | –
43 | FC(F)(F)CNc1nc(Nc2ccsc2)ncc1Br [Example 29] | – | 3.50[c] | –
44 | CC(C)N(C)C(=O)c1cc(Nc2ncc(Cl)c(NC3CC3)n2)cs1 [Example 8] | – | – | logp [a] [1]: 1.6[a]
